According to PubChem BioAssay (NCI):
Where “and” joins values, the source holds several entries; their conditions need not be identical. Equal entries are not always repeated.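 Exposure lasted 48 hours, with cells grown in 96-well plates and compounds tested at five concentrations. The concentration for 50% growth inhibition is given as GI50. TGI marks complete inhibition of growth.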 *1 amine or outer side, *2 acyl side, *3 side chain or, on linkers, in order; H or OH if unused. Where a SMILES comes first, the peptide text is derived from it. Bridges are numbered along the chain shown (N, C = ends). [ ]: non-standard residue; d: D form. The star is where a group is joined. Phe(3,5-F2) = N[C@@H](Cc1cc(F)cc(F)c1)C(=O)O; Pro(4R-Me) = C[C@H]1CN[C@H](C(=O)O)C1; aThr = C[C@H](O)[C@H](N)C(=O)O; Pip = O=C(O)[C@@H]1CCCCN1; X10 = Fc1cc(C2CC2)ccc1N*; CO = O=C([*:1])[*:2]

Assays:
Assay in all cases: NCI anticancer screen, dose series, 48 h
SK-MEL-28 melanoma = system: SK-MEL-28 melanoma
SF-539 CNS = system: SF-539 CNS
NCI-H460 lung = system: NCI-H460 lung
A549 NSCLC = system: A549 NSCLC
MCF7 breast = system: MCF7 breast
A498 renal = system: A498 renal
BT-549 breast = system: BT-549 breast
HCC-2998 colon = system: HCC-2998 colon
HOP-62 NSCLC = system: HOP-62 NSCLC
SR leukemia = system: SR leukemia

| Structure (SMILES) | GI50 (SK-MEL-28 melanoma) [µM] | TGI (SK-MEL-28 melanoma) | GI50 (SF-539 CNS) [µM] | TGI (SF-539 CNS) | GI50 (NCI-H460 lung) [µM] | TGI (NCI-H460 lung) | GI50 (A549 NSCLC) [µM] | TGI (A549 NSCLC) | GI50 (MCF7 breast) [µM] | TGI (MCF7 breast) [µM] | GI50 (A498 renal) [µM] | TGI (A498 renal) | GI50 (BT-549 breast) [µM] | TGI (BT-549 breast) [µM] | GI50 (HCC-2998 colon) [µM] | TGI (HCC-2998 colon) | GI50 (HOP-62 NSCLC) [µM] | TGI (HOP-62 NSCLC) | GI50 (SR leukemia) [µM] | TGI (SR leukemia) [µM] |
| --- | --- | --- | --- | --- | --- | --- | --- | --- | --- | --- | --- | --- | --- | --- | --- | --- | --- | --- | --- | --- |
| Cc1ccc(CN2CCC(C(=O)Nc3ccc(-c4cc5ccccc5[nH]4)cc3)CC2)o1 | 88.9 | > 100 µM | > 100 | > 100 µM | > 100 | > 100 µM | > 100 | > 100 µM | > 100 | > 100 | 4.04 | > 100 µM | > 100 | > 100 | > 100 | > 100 µM | 55.8 | > 100 µM | 4.3 | > 100 |
| COc1cccc(C2c3cc4c(cc3OC(C)(N3CCCC3)C2C)OCO4)c1O (stereo unspecified) | – | > 100 µM | – | 21.8 µM | – | 37 µM | – | 75 µM | – | > 37.1 | – | 40.5 µM | – | 48.2 | – | 25.6 µM | – | 31.6 µM | – | 19.3 |
| Nc1c(C(=O)c2cccc(CCS(N)(=O)=O)c2)cnn1-c1ccc(F)cc1 | > 25 | > 25 µM | > 25 | > 25 µM | > 25 | > 25 µM | > 25 | > 25 µM | > 25 | > 25 | > 25 | > 25 µM | > 25 | > 25 | > 25 | > 25 µM | > 25 | > 25 µM | > 25 | > 25 |
| NC(N)=NS(=O)(=O)c1ccc(Nc2c3ccccc3nc3c(C(=O)NCCO)cccc23)cc1 | 20.3 | – | 29.5 | – | 9.16 | – | 20.1 | – | 13.5 | – | 13.6 | – | 33.8 | – | 0.0928 | – | 20 | – | 30.7 | – |
| O=C(Nc1ccccc1)c1c(O)[nH]c(=S)[nH]c1=O | 127 | 124 µM and > 250 µM | 102 | 87.1 µM and > 250 µM | 29.5 | 101 µM and > 250 µM | 36.7 | 82.6 µM and 147 µM | – | 92.8 | 65.2 | 106 µM and > 250 µM | – | 72 | 95.3 | 120 µM and > 250 µM | 73.2 | 82.5 µM and > 250 µM | – | 53.8 |
| COc1ccc2c(c1)sc1nc(-c3ccccc3)c(-c3cccc4ccccc34)n12 | 0.417 | > 100 µM | 0.385 | – | 0.416 | > 35.2 µM | 0.816 | > 100 µM | 0.835 | > 33.4 | 0.601 | > 30 µM | 1.15 | > 93.2 | 1.53 | 36.6 µM | 0.538 | – | 0.323 | > 100 |
| Cc1ccsc1C(=S)Nc1ccc(Cl)c(/C=N/OC(C)(C)C)c1 | – | > 100 µM | – | > 100 µM | – | > 100 µM | – | > 100 µM | – | > 100 | – | 41.1 µM | – | 59.8 | – | 48.5 µM | – | > 100 µM | – | 61.7 |
| C[C@@H]1C[C@H]2C(=O)O[C@@H](C)[C@H](NC(=O)[C@H](Cc3cc(F)cc(F)c3)NC(=O)Nc3ccc(C4CC4)cc3F)C(=O)N3CCC[C@H]3C(=O)N3CCCC[C@H]3C(=O)N[C@@H](C)C(=O)N2C1 ({X10-CO}-[Phe(3,5-F2)][aThr]P[Pip]A[Pro(4R-Me)]; ester 2-C) | 0.0781 | 4.99 µM | 0.0752 | 3.56 µM | 0.0391 | 4.55 µM | 0.0507 | > 100 µM | 0.0381 | 13.9 | 0.0203 | 0.363 µM | 0.0588 | > 22.4 | 0.0402 | 1.78 µM | 0.0542 | > 48.2 µM | 0.0633 | 5.67 |
| CN1CCCCC1CCN1c2ccccc2Sc2ccc(Cl)cc21 (stereo unspecified) | 2.23 | 5.9 µM | 2.29 | 5.42 µM | 2.77 | 8.44 µM | 3.31 | 11.8 µM | 2.68 | 9 | 2.7 | 10.8 µM | 10.4 | 23.3 | 2.5 | 5.85 µM | 10.1 | 24.2 µM | 3.2 | – |
| COc1cc(/C=N\NC(=O)CN2CCN(c3cc4c(cc3F)c(=O)c(C(=O)N/N=C/c3cc(OC)c(OC)c(OC)c3)cn4C3CC3)CC2)cc(OC)c1OC | 0.359 | > 19.8 µM | 0.212 | 0.522 µM | 0.251 | 0.636 µM | > 24.6 | > 100 µM | 0.362 | > 100 | 0.299 | 23.7 µM | 0.199 | 0.461 | 0.178 | 0.33 µM | 0.374 | 21 µM | 0.324 | > 100 |
| O=C1NC(=NCCc2cccc(F)c2)S/C1=C\c1ccc2ncccc2c1 | > 21.4 | > 25 µM | 1.59 | > 25 µM | 1.39 | > 25 µM | 1.55 | > 25 µM | 0.766 | > 25 | 3.89 | > 25 µM | 10.6 | > 25 | > 25 | > 25 µM | 2.15 | > 25 µM | 0.121 | > 25 |
| COc1cc2c(c(OC)c1OC)-c1ccc(NNC(N)=S)c(=O)cc1[C@@H](NC(C)=O)CC2 | 0.777 | > 100 µM | 0.338 | 4.31 µM | 0.397 | – | 3.12 | > 100 µM | 0.372 | > 100 | 0.93 | > 21.1 µM | 0.37 | – | 0.263 | – | 0.739 | > 100 µM | 0.279 | > 100 |
| Fc1ccc(NC(=S)SCc2ccc3c(c2)OCO3)cc1F | – | 13 µM | – | 53.5 µM | – | > 100 µM | – | 44.6 µM | – | 36.2 | – | 61.8 µM | – | 51.4 | – | 71.5 µM | – | > 100 µM | – | 43.9 |
| O=C1/C(=C/c2ccc(O)c(O)c2)CCC/C1=C\c1ccc(O)c(O)c1 | – | 11.8 µM | – | 8.99 µM | – | 20.1 µM | – | > 50.2 µM | – | > 48.2 | – | 21.1 µM | – | > 33.9 | – | 11.5 µM | – | 14.5 µM | – | > 89.8 |
| Cc1ccnc2c1ccc1c(C)ccnc12 | 0.491 | 14.2 µM | 0.316 | 5.06 µM | 0.339 | 11.3 µM | 0.386 | 11.4 µM | 0.343 | 12.4 | 0.327 | 3.71 µM | 0.521 | 14.3 | 0.381 | 15.1 µM | 0.508 | 12.6 µM | 0.382 | > 100 |
